Measured values: paper PMC3423427, “Design and Synthesis of Potent N-Acylethanolamine-hydrolyzing Acid Amidase (NAAA) Inhibitor as Anti-Inflammatory Compounds” (PLoS ONE, 2012)

Tests used:
rat NAAA = target: T1, rat NAAA (Rattus norvegicus, UniProt Q5KTC7); test: NAAA enzymatic assay (recombinant rNAAA protein, LC/MS); type: biochemical; details: for IC50: IC50 ± S.E.M., triplicate, 25 µM heptadecenoylethanolamide, pH 5.0;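 for all read-outs here: reaction product measured by LC/MS using positive APCI ionization with MRM monitoring, quantified from chromatographic peak areas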
T1 construct: made in house; host or cells: HEK293 cells stably overexpressing rat NAAA (HEK293-rNAAA), a gift from D. Piomelli; crude 800 x g supernatant of sonicated cells
T1 sequence (Q5KTC7 34-362): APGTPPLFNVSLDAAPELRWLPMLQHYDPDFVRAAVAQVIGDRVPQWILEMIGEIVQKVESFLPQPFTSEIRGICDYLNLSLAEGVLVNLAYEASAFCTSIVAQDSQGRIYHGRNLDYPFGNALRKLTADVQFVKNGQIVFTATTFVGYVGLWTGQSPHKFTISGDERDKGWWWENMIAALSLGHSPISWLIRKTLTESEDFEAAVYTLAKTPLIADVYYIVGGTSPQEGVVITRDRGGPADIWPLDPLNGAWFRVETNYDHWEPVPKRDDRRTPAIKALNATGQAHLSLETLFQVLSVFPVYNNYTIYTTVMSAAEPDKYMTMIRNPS
Method: (§1) HEK293-rNAAA or HEK293-rFAAH cells were harvested, washed with PBS, sonicated in 20 mM Tris-HCl (pH 7.5) containing 0.32 M sucrose, and centrifuged at 800 × g for 15 min at 4°C. The supernatants were collected and protein concentrations were measured by BCA protein assay kit (Pierce, Shanghai, China). […] The reactions were terminated by adding 0.2 mL methanol containing 1 nmol heptadecanoic acid and analyzed in LC/MS.
(§2) We use an Agilent 1200-LC system coupled to a 3200Q TRAP-MS detector equipped with an ESI interface (Agilent Technologies, Shanghai, China). […] The column temperature was set at 40°C. […] Mass spectrometer (MS) detection was ionized by positive-ion atmospheric pressure chemical ionization mode (APCI^+) and monitored in MRM mode. […] Quantifications were calculated at chromatographic peak areas by using Analyst® version 1.4.1. software (Applied Biosystems).

rat FAAH = target: T2, rat FAAH (Rattus norvegicus, UniProt P97612); test: FAAH enzymatic assay (recombinant rFAAH protein, LC/MS); type: biochemical; details: for IC50: IC50 ± S.E.M., triplicate, 25 µM anandamide, pH 8.0
T2 construct: made in house; host or cells: HEK293 cells stably overexpressing rat FAAH (HEK293-rFAAH), a gift from D. Piomelli; crude cell extract
T2 sequence (P97612 1-579): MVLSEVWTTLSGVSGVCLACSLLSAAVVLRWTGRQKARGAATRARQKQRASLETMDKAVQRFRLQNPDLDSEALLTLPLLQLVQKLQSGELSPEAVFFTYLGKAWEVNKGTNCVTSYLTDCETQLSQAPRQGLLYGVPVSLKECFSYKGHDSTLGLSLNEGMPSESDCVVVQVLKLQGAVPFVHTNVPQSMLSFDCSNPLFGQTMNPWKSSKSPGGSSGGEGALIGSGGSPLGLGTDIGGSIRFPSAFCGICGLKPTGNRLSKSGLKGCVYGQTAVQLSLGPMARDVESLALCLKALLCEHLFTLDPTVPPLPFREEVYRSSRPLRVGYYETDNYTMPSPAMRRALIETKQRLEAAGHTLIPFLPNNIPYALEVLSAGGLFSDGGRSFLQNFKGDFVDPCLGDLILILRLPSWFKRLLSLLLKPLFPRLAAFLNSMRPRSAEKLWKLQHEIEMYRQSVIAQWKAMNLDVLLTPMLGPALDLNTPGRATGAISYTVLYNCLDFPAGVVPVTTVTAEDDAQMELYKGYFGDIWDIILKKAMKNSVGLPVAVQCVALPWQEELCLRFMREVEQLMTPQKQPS
Method: as §1, §2

NAAA = details: cited from earlier work

IC50 (rat NAAA) | IC50 (rat FAAH) | inhibition ability on NAAA activity (in words) (rat NAAA) | inhibition ability on FAAH activity (in words) (rat FAAH) | melting point | SMILES | potency as NAAA inhibitor relative to CCP (NAAA) | mode of NAAA inhibition (NAAA)
38.2 ± 3.79 µM | > 100 µM |  |  |  | O=C(CCCCc1ccccc1)N1CCCC1 [Compound 10, 1–(4–Phenylbutanyl)–carbonyl pyrrolidine] |  | 
> 100 µM | > 100 µM |  |  |  | O=C(Cc1ccc2ccccc2c1)N1CCCC1 [Compound 20, 1–(2–Naphthalenyl)acetyl pyrrolidine] |  | 
> 100 µM | > 100 µM |  |  |  | O=C(c1ccc2ccccc2c1)N1CCCC1 [Compound 19, 1–(2–Naphthalenyl)carbonyl pyrrolidine] |  | 
> 100 µM | > 100 µM | complete loss of the inhibition ability | complete loss of the inhibition ability |  | CCCCCCCCCCCCCCCC(=O)NC1CCCC1 [Compound 2, N–Cyclopentylpalmitamide] |  | 
> 100 µM | > 100 µM | full loss of inhibition | full loss of inhibition | 151.8 to 154.6 °C | O=C(NCc1ccc(-c2ccccc2)cc1)C1CCCC1 [Compound 23, 4–Phenylbenzyl cyclopentanyl carboxamide] |  | 
37.9 ± 4.58 µM | > 100 µM |  |  |  | O=C(CCCCCCCc1ccccc1)N1CCCC1 [Compound 13, 1–(7–Phenylheptanyl)–carbonyl pyrrolidine] |  | 
> 100 µM | > 100 µM | full loss of inhibition | full loss of inhibition |  | O=C(OCc1ccc(-c2ccccc2)cc1)C1CCCC1 [Compound 24, 4–Phenylbenzyl cyclopentanyl carboxylate] |  | 
> 100 µM | > 100 µM | complete loss of the inhibition ability | complete loss of the inhibition ability | 57.9 to 60.2 °C | CCCCCCCCCCCCCCCC(=O)n1cccc1 [Compound 6, 1–Pentadecanyl–carbonyl pyrrole] |  | 
> 100 µM | > 100 µM | complete loss of the inhibition ability | complete loss of the inhibition ability |  | CCCCCCCCCCCCCCCC(=O)OC1CCCC1 [Compound 4, Cyclopentyl palmitate] |  | 
> 100 µM | > 100 µM |  |  |  | O=C(CCCc1ccccc1)N1CCCC1 [Compound 9, 1–(3–Phenylpropanyl)–carbonyl pyrrolidine] |  | 
25 ± 5.7 µM | 21.8 ± 4.45 µM |  |  |  | CCCCCCCCCCCCCCCC(=O)N1CCCC1 [Compound 1, 1–Pentadecanyl–carbonyl pyrrolidine] |  | 
 |  |  |  |  | O=C(CCc1ccccc1)N[C@H]1COC1=O [(S)-OOPP, (S)-N-(2-oxo-3-oxetanyl)-3-phenylpropionamide] | about 10 fold | 
12.9 ± 3.47 µM | > 100 µM |  |  |  | O=C(CCCCCCc1ccccc1)N1CCCC1 [Compound 12, 1–(6–Phenylhexanyl)–carbonyl pyrrolidine] |  | 
 |  |  |  |  | CCCCCCCCCCCCCCCNC(=O)C1CCCCC1 [CCP, N-Cyclohexanecarbonylpentadecylamine] |  | reversible and non-competitive
> 100 µM | > 100 µM | full loss of inhibition | full loss of inhibition |  | c1ccc(-c2ccc(CCCN3CCCC3)cc2)cc1 [Compound 25, 1–(3–Biphenyl–4–ylpropyl)pyrrolidine] |  | 
> 100 µM | > 100 µM |  |  |  | O=C(Cc1ccc(-c2ccccc2)cc1)N1CCCC1 [Compound 15, 1–(4–Phenylbenzyl)–carbonyl pyrrolidine] |  | 
> 100 µM | > 100 µM |  |  |  | O=C(Cc1ccccc1)N1CCCC1 [Compound 7, 1–Benzyl–carbonyl pyrrolidine] |  | 
> 100 µM | > 100 µM | complete loss of the inhibition ability | complete loss of the inhibition ability |  | CCCCCCCCCCCCCCCC(=O)OC1CCOC1 (stereo not drawn) [Compound 5, Tetrahydrofuran–3–yl palmitate] |  | 
> 100 µM | > 100 µM |  |  |  | O=C(c1ccc(-c2ccccc2)cc1)N1CCCC1 [Compound 14, 1–(Biphenyl–4–ylcarbonyl)pyrrolidine] |  | 
34.6 ± 4.82 µM | > 100 µM |  |  |  | O=C(CCCCCc1ccccc1)N1CCCC1 [Compound 11, 1–(5–Phenylpentanyl)–carbonyl pyrrolidine] |  | 
> 100 µM | > 100 µM |  |  |  | O=C(CCc1ccccc1)N1CCCC1 [Compound 8, 1–(2–Phenylethyl)–carbonyl pyrrolidine] |  | 
> 100 µM | > 100 µM |  |  |  | O=C(CCc1ccc(OCc2ccccc2)cc1)N1CCCC1 [Compound 18, 1–(2–(4–Benzyloxy)phenyl)ethyl–carbonyl pyrrolidine] |  | 
> 100 µM | > 100 µM |  |  |  | O=C(Cc1ccc(OCc2ccccc2)cc1)N1CCCC1 [Compound 17, 1–(4–Benzyloxy)benzyl–carbonyl pyrrolidine] |  | 

SMILES | IC50 (rat NAAA) | IC50 (rat FAAH) | inhibition ability on NAAA activity (in words) (rat NAAA) | inhibition ability on FAAH activity (in words) (rat FAAH) | melting point | potency as NAAA inhibitor relative to CCP (NAAA) | mode of NAAA inhibition (NAAA)
CCCCCCCCCCCCCCCC(=O)N1CCCCC1 [Compound 3, Pentadecanyl–carbonyl piperidine] | > 100 µM | > 100 µM | complete loss of the inhibition ability | complete loss of the inhibition ability |  |  | 
O=C(OCc1ccc(-c2ccccc2)cc1)N1CCCC1 [Compound 22, Biphenyl–4–ylmethyl pyrrolidinyl–1–carboxylate] | > 100 µM | > 100 µM | full loss of inhibition | full loss of inhibition |  |  | 
O=C(NCc1ccc(-c2ccccc2)cc1)N1CCCC1 [Compound 21, N–(Biphenyl–4–ylmethyl)pyrrolidinyl–1–carboxamide] | > 100 µM | > 100 µM | full loss of inhibition | full loss of inhibition |  |  | 
